This passage reports GI50 results from patent US20250388605A1, “HETEROBIFUNCTIONAL COMPOUNDS AND METHODS OF TREATING DISEASE” (Halda Therapeutics OpCo, Inc., priority 2022, published 2025).

Assay [1] relates to T-Rex 293 cell line SC3 cells having increased expression of androgen receptor protein due to exposure to doxycycline. Briefly: Cellular growth inhibition, T-Rex 293 SC3 cells with doxycycline (increased androgen receptor expression), CellTiter-Glo. The class given is cell-based. The following applies: T-Rex 293 SC3 cells with 10 ng/mL doxycycline (increased androgen receptor expression), 72 hours, CellTiter-Glo 2.0. In short, it runs like this:
(§1)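 Growth inhibition is measured in an inducible AR-expressing T-Rex 293 clone, SC3, cultured with or without 10 ng/mL doxycycline in hormone-depleted medium. Test compounds are applied for 72 hours. GI50 values derive from CellTiter-Glo 2.0 signal fitted by four-parameter regression.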
On the technique in general: In ATP-based viability assays light output follows the ATP content of the culture.

Assay [2] has as its system T-Rex 293 cell line SC3 cells lacking increased expression of androgen receptor protein. Kind of assay: Cellular growth inhibition, T-Rex 293 SC3 cells without doxycycline (no increased androgen receptor expression), CellTiter-Glo. The following applies: T-Rex 293 SC3 cells not exposed to doxycycline (no increased androgen receptor expression), 72 hours. The assay is classed as cell-based. The procedure, abridged:
as §1

Assay [3] relates to VCaP cells. Kind of assay: Cellular growth inhibition assay for VCaP cells, CellTiter-Glo. The class given is cell-based, human. The following applies: 72 hours. In short, it runs like this:
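GI50 values come from four-parameter curve fits of luminescence data normalized to a zero baseline. Compound, in medium with 0.5% DMSO, was added one day after plating and left for 72 h before CellTiter-Glo 2.0 addition.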

Assay [4] has as its system T47D cells. Kind of assay: Cellular Growth Inhibition Assay for T47D Cells (CellTiter-Glo). The class given is cell-based, human. The settings on record: 72 hours. In short, it runs like this: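 GI50 values derive from four-parameter regression of CellTiter-Glo 2.0 luminescence, using zero luminescence as baseline. Human breast cancer T47D cells (3000/well; DMEM, 10% FBS, 0.2 units/mL insulin) were exposed for 72 h to compound dilutions at 0.5% DMSO, with dosing starting 24 h after seeding.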

For orientation: GI50 means the concentration giving 50% growth inhibition. A higher GI50 goes with lower sensitivity of the cells. As to `Cn1cc(-c2cc(C(C)(C)O)ccc2Oc2cccc(N3CC(CN4CCN(c5ncc(C(=O)N[C@H]6C(C)(C)[C@H](Oc7ccc(C#N)c(Cl)c7)C6(C)C)cn5)CC4(C)C)C3)c2F)c2cc[nH]c2c1=O` [Compound I-294], the GI50 in assay [1] was less than 500 nM; in assay [2], greater than 3000 nM; in assay [3] it was less than 500 nM; in assay [4] it was less than 500 nM.

Take `Cn1cc(-c2cc(C(C)(C)O)ccc2Oc2ccc(N3CC(CC4CCN(c5cnc(C(=O)N[C@H]6C(C)(C)[C@H](Oc7ccc(C#N)c(Cl)c7)C6(C)C)cn5)CC4)C3)nc2)c2cc[nH]c2c1=O` [Compound I-334]: the GI50 in assay [1] was less than 500 nM; in assay [2], greater than 3000 nM; in assay [3] (Homo sapiens), less than 500 nM; in assay [4] (Homo sapiens), less than 500 nM.

`Cn1cc(-c2cc(C(C)(C)O)ccc2Oc2ccc(N3CC(CC4CN(c5ccc(C(=O)N[C@H]6C(C)(C)[C@H](Oc7ccc(C#N)c(Cl)c7)C6(C)C)cc5)C4)C3)cc2)c2cc[nH]c2c1=O` [Compound I-336]: the GI50 in assay [1] is less than 500 nM; in assay [2], greater than 3000 nM; in assay [3] (Homo sapiens), greater than 3000 nM; in assay [4] (Homo sapiens), less than 500 nM.

Regarding `CCS(=O)(=O)Nc1ccc(Oc2ccc(OCC3CCN(c4ncc(C(=O)N[C@H]5C(C)(C)[C@H](Oc6ccc(Cl)c(C#N)c6)C5(C)C)cn4)CC3)cc2)c(-c2cn(C)c(=O)c3[nH]ccc23)c1` [Compound I-277], the GI50 in assay [1], in assay [2], in assay [3] and in assay [4] was less than 500 nM each time.

Turning to `Cn1cc(-c2cc(N)ccc2Oc2cccc(N3CC(N4CCN(c5ncc(C(=O)N[C@H]6C(C)(C)[C@H](Oc7ccc(C#N)c(Cl)c7)C6(C)C)cn5)CC4)C3)c2)c2cc[nH]c2c1=O` [Compound I-89, 2-(4-(1-(3-(4-amino-2-(6-methyl-7-oxo-6,7-dihydro-1H-pyrrolo[2,3-c]pyridin-4-yl)phenoxy)phenyl)azetidin-3-yl)piperazin-1-yl)-N-((1r, 3r)-3-(3-chloro-4-cyanophenoxy)-2,2,4,4-tetramethylcyclobutyl)pyrimidine-5-carboxamide], the GI50 was less than 500 nM in assay [1], greater than 3000 nM in assay [2], less than 500 nM in assay [3] (Homo sapiens) and 500 to 1500 nM in assay [4] (Homo sapiens).

On to `Cn1cc(-c2cc(C(C)(C)O)ccc2Oc2cccc(N3CC(CN4CCN(c5ncc(C(=O)N[C@H]6C(C)(C)[C@H](Oc7ccc(C#N)c(Cl)c7)C6(C)C)cn5)C5(CC5)C4)C3)c2F)c2cc[nH]c2c1=O` [Compound I-273], for which the GI50 was less than 500 nM in assay [1], 500 to 1500 nM in assay [2], less than 500 nM in assay [3] and less than 500 nM in assay [4].

On to `CCS(=O)(=O)Cc1ccc(Oc2cccc(CCCCC3CCN(c4ncc(C(=O)N[C@H]5C(C)(C)[C@H](Oc6ccc(C#N)c(Cl)c6)C5(C)C)cn4)CC3)c2)c(-c2cn(C)c(=O)c3[nH]ccc23)c1` [Compound I-263], for which the GI50 is less than 500 nM in assay [1], greater than 3000 nM in assay [2], less than 500 nM in assay [3] (Homo sapiens) and less than 500 nM in assay [4] (Homo sapiens).

Regarding `Cn1cc(-c2cc(C(C)(C)O)ccc2OC2CCC(N3CC(OC4CCN(c5ncc(C(=O)N[C@H]6C(C)(C)[C@H](Oc7ccc(C#N)c(Cl)c7)C6(C)C)cn5)CC4)C3)CC2)c2cc[nH]c2c1=O` (stereo partly drawn) [Compound I-288, N-[3-(3-chloro-4-cyano-phenoxy)-2,2,4,4-tetramethyl-cyclobutyl]-2-[4-[1-[4-[4-(1-hydroxy-1-methyl-ethyl)-2-(6-methyl-7-oxo-1H-pyrrolo[2,3-c]pyridin-4-yl)phenoxy]cyclohexyl]azetidin-3-yl]oxy-1-piperidyl]pyrimidine-5-carboxamide], the GI50 in assay [1], in assay [2], in assay [3] (Homo sapiens) and in assay [4] (Homo sapiens) was less than 500 nM each time.

For the compound `Cn1cc(-c2cc(C(C)(C)O)ccc2OC2CC3CC2CC3OCC2CCN(c3ncc(C(=O)N[C@H]4C(C)(C)[C@H](Oc5ccc(C#N)c(Cl)c5)C4(C)C)cn3)CC2)c2cc[nH]c2c1=O` (stereo partly drawn) [Compound I-296], the GI50 was less than 500 nM in assay [1], greater than 3000 nM in assay [2], less than 500 nM in assay [3] and greater than 3000 nM in assay [4].

Regarding `CCS(=O)(=O)c1ccc(Oc2cccc(CCN3CC4(C3)CN(c3ncc(C(=O)N[C@H]5C(C)(C)[C@H](Oc6ccc(C#N)c(Cl)c6)C5(C)C)cn3)CCO4)c2F)c(-c2cn(C)c(=O)c3[nH]ccc23)c1` [Compound I-264], the GI50 in assay [1], in assay [2], in assay [3] (Homo sapiens) and in assay [4] (Homo sapiens) was less than 500 nM throughout.

In the case of `Cn1cc(-c2cc(C(C)(C)O)ccc2Oc2ccc(CCC3CCN(c4ncc(C(=O)NC5C(C)(C)C(Oc6ccc(C#N)c(Cl)c6)C5(C)C)cn4)CC3)cn2)c2cc[nH]c2c1=O` (stereo not drawn) [Compound I-287, N-[3-(3-chloro-4-cyano-phenoxy)-2,2,4,4-tetramethyl-cyclobutyl]-2-[4-[2-[6-[4-(1-hydroxy-1-methyl-ethyl)-2-(6-methyl-7-oxo-1H-pyrrolo[2,3-c]pyridin-4-yl)phenoxy]-3-pyridyl]ethyl]-1-piperidyl]pyrimidine-5-carboxamide], the GI50 was less than 500 nM in assay [1], greater than 3000 nM in assay [2], 500 to 1500 nM in assay [3] (Homo sapiens) and less than 500 nM in assay [4] (Homo sapiens).

On to `CCS(=O)(=O)Nc1ccc(Oc2cccc(C3CC(C4CCN(c5ncc(C(=O)N[C@H]6C(C)(C)[C@H](Oc7ccc(C#N)c(Cl)c7)C6(C)C)cn5)CC4)C3)c2)c(-c2cn(C)c(=O)c3[nH]ccc23)c1` (stereo partly drawn) [Compound I-157], for which the 50% growth inhibitory concentration (GI50) was less than 500 nM in assay [1], greater than 3000 nM in assay [2], less than 500 nM in assay [3] (Homo sapiens) and less than 500 nM in assay [4] (Homo sapiens).

Consider `CCS(=O)(=O)c1ccc(Oc2ccc(CN3CC4(C3)CN(c3ncc(C(=O)N[C@H]5C(C)(C)[C@H](Oc6ccc(C#N)c(Cl)c6)C5(C)C)cn3)C4)c(F)c2)c(-c2cn(C)c(=O)c3[nH]ccc23)c1` [Compound I-271], for which the GI50 in assay [1], in assay [2], in assay [3] (Homo sapiens) and in assay [4] (Homo sapiens) was less than 500 nM throughout.

In the case of `CCS(=O)(=O)Nc1ccc(Oc2cccc(N(C)C3CCN(C4CCN(c5ncc(C(=O)N[C@H]6C(C)(C)[C@H](Oc7ccc(C#N)c(Cl)c7)C6(C)C)cn5)CC4)C3)c2)c(-c2cn(C)c(=O)c3[nH]ccc23)c1` (stereo partly drawn) [Compound I-42], the GI50 in assay [1], in assay [2], in assay [3] (Homo sapiens) and in assay [4] (Homo sapiens) was less than 500 nM each time.

`Cn1cc(-c2cc(C(C)(C)O)ccc2Oc2ccc(N3CC(CC4CN(c5cnc(C(=O)N[C@H]6C(C)(C)[C@H](Oc7ccc(C#N)c(Cl)c7)C6(C)C)nc5)C4)C3)cc2)c2cc[nH]c2c1=O` [Compound I-323]: the GI50 is 500 to 1500 nM in assay [1], 500 to 1500 nM in assay [2], less than 500 nM in assay [3] (Homo sapiens) and less than 500 nM in assay [4] (Homo sapiens).

In the case of `Cn1cc(-c2cc(C(C)(C)O)ccc2Oc2cccc(CC3CC4(C3)CN(c3ncc(C(=O)N[C@H]5C(C)(C)[C@H](Oc6ccc(C#N)c(Cl)c6)C5(C)C)cn3)C4)c2)c2cc[nH]c2c1=O` [Compound I-321], the 50% growth inhibitory concentration (GI50) in assay [1], in assay [2], in assay [3] and in assay [4] was less than 500 nM in each case.

`Cn1cc(-c2cc(C(C)(C)O)ccc2Oc2ccc(F)c(OCCN3CC4(C3)CN(c3ncc(C(=O)N[C@H]5C(C)(C)[C@H](Oc6ccc(C#N)c(Cl)c6)C5(C)C)cn3)C4)c2F)c2cc[nH]c2c1=O` [Compound I-239]: the GI50 in assay [1], in assay [2], in assay [3] and in assay [4] was less than 500 nM throughout.

Consider `CCS(=O)(=O)c1ccc(OC(CCCCOC2CCN(c3ncc(C(=O)N[C@H]4C(C)(C)[C@H](Oc5ccc(C#N)c(Cl)c5)C4(C)C)cn3)CC2)C2CC2)c(-c2cn(C)c(=O)c3[nH]ccc23)c1` (stereo partly drawn) [Compound I-234], for which the GI50 in assay [1], in assay [2], in assay [3] and in assay [4] was less than 500 nM each time.

As to `CC(C)c1ccc(Oc2cccc(CCCN3CCN(c4ncc(C(=O)NC5C(C)(C)C(Oc6ccc(C#N)c(Cl)c6)C5(C)C)cn4)CC3)c2)c(-c2cn(C)c(=O)c3[nH]ccc23)c1` (stereo not drawn) [Compound I-125, N-[3-(3-chloro-4-cyano-phenoxy)-2,2,4,4-tetramethyl-cyclobutyl]-2-[4-[3-[3-[4-isopropyl-2-(6-methyl-7-oxo-1H-pyrrolo[2,3-c]pyridin-4-yl)phenoxy]phenyl]propyl]piperazin-1-yl]pyrimidine-5-carboxamide], the GI50 in assay [1] is less than 500 nM; in assay [2] it was greater than 3000 nM; in assay [3] (Homo sapiens) it was less than 500 nM; in assay [4] (Homo sapiens), 1500 to 3000 nM.

Consider `CCS(=O)(=O)Nc1ccc(Oc2cccc(C3CN(CC4CCN(c5ncc(C(=O)N[C@H]6C(C)(C)[C@H](Oc7ccc(C#N)c(Cl)c7)C6(C)C)cn5)CC4)C3)c2)c(-c2cn(C)c(=O)c3[nH]ccc23)c1` [Compound I-78], for which the 50% growth inhibitory concentration (GI50) in assay [1], in assay [2], in assay [3] (Homo sapiens) and in assay [4] (Homo sapiens) was less than 500 nM throughout.

In the case of `CCS(=O)(=O)Nc1ccc(Oc2cccc(N3CC(N(C)C4CCN(c5ncc(C(=O)N[C@H]6C(C)(C)[C@H](Oc7ccc(C#N)c(Cl)c7)C6(C)C)cn5)CC4)C3)c2F)c(-c2cn(C)c(=O)c3[nH]ccc23)c1` [Compound I-178], the GI50 in assay [1], in assay [2], in assay [3] and in assay [4] was less than 500 nM in each case.
